Measurements: article PMC10412597, “Small molecule branched-chain ketoacid dehydrogenase kinase (BDK) inhibitors with opposing effects on BDK protein levels” (Nature Communications, 2023)

Tests used:
[1] = target: MAPK15 (Homo sapiens, UniProt Q8TD08); parameters: Invitrogen Lantha screen kinase binding, per cent inhibition of binding; details: 10 µM, binder
Method: (§1) To discover a potent and selective BDK inhibitor, a subset of the Pfizer compound collection was screened. […] Off target activity was assessed in both CEREP and kinase panels (Supplementary Tables 2, 3).

[2] = target: MAP3K11 (Homo sapiens, UniProt Q16584); parameters: Invitrogen Lantha screen kinase binding, per cent inhibition of binding; details: 10 µM, binder
Method: as §1

[3] = target: T1, Dual-specificity tyrosine-(Y)-phosphorylation regulated kinase 2 (DYRK) (Homo sapiens, UniProt Q92630); parameters: Invitrogen Lantha screen kinase binding, per cent inhibition of binding; details: 10 µM, binder
T1 construct: gene DYRK2
Method: as §1

[4] = target: T2, Protein kinase, AMP-activated, alpha 1 beta 1 gamma 2 complex (Homo sapiens, UniProt Q13131+Q9UGJ0+Q9Y478); parameters: Invitrogen Lantha screen kinase binding, per cent inhibition of binding; details: 10 µM, binder
T2 construct: gene PRKAA1
Method: as §1

[5] = target: TTK (Homo sapiens, UniProt P33981); parameters: Invitrogen Lantha screen kinase binding, per cent inhibition of binding; details: 10 µM, binder
Method: as §1

[6] = target: CAMKK2 (Homo sapiens, UniProt Q96RR4); parameters: Invitrogen Lantha screen kinase binding, per cent inhibition of binding; details: 10 µM, binder
Method: as §1

[7] = target: TGF-beta activated kinase 1/MAP3K7 binding protein 1 (MAP3K7IP1) (Homo sapiens, UniProt O43318); parameters: Invitrogen Lantha screen kinase binding, per cent inhibition of binding; details: 10 µM, binder
Method: as §1

[8] = target: TGFBR2 (Homo sapiens, UniProt P37173); parameters: Invitrogen Lantha screen kinase binding, per cent inhibition of binding; details: 10 µM, binder
Method: as §1

[9] = target: MYLK (Homo sapiens, UniProt Q15746); parameters: Invitrogen Lantha screen kinase binding, per cent inhibition of binding; details: 10 µM, binder
Method: as §1

[10] = target: PKN2 (Homo sapiens, UniProt Q16513); parameters: Invitrogen Lantha screen kinase binding, per cent inhibition of binding; details: 10 µM, binder
Method: as §1

[11] = target: MKNK2 (Homo sapiens, UniProt Q9HBH9); parameters: Invitrogen Lantha screen kinase binding, per cent inhibition of binding; details: 10 µM, binder
Method: as §1

[12] = target: PRKDC (Homo sapiens, UniProt P78527); parameters: Invitrogen kinase panel, per cent inhibition of kinase activity; details: 10 µM, inhibitor
Method: as §1

[13] = target: CHEK2 (Homo sapiens, UniProt O96017); parameters: Invitrogen kinase panel, per cent inhibition of kinase activity; details: 10 µM, inhibitor
CHEK2, sequence (O96017 whole entry): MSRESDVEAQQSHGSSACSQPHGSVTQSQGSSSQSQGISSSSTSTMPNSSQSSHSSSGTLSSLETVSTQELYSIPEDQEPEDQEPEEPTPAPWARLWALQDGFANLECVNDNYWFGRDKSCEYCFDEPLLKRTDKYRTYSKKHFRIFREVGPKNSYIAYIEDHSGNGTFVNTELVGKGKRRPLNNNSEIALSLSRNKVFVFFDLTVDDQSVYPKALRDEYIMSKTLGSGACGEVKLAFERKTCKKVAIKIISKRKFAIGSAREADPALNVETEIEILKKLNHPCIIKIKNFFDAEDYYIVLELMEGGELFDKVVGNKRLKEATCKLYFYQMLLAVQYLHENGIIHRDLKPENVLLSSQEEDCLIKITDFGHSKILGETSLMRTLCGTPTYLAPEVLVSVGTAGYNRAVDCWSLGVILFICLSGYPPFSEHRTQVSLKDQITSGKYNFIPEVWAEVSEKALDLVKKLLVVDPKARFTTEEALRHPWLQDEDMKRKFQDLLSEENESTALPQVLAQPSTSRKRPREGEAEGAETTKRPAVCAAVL
Method: as §1

[14] = target: PIK3C2B (Homo sapiens, UniProt O00750); parameters: Invitrogen kinase panel, per cent inhibition of kinase activity; details: inhibitor
Method: as §1

[15] = target: T3, Mitogen-Activated Protein Kinase Kinase Kinase Kinase 4 (MAPK4K4) (Homo sapiens, UniProt O95819); parameters: Invitrogen kinase panel, per cent inhibition of kinase activity; details: 10 µM, inhibitor
T3 construct: gene MAP4K4
T3 sequence (O95819 whole entry): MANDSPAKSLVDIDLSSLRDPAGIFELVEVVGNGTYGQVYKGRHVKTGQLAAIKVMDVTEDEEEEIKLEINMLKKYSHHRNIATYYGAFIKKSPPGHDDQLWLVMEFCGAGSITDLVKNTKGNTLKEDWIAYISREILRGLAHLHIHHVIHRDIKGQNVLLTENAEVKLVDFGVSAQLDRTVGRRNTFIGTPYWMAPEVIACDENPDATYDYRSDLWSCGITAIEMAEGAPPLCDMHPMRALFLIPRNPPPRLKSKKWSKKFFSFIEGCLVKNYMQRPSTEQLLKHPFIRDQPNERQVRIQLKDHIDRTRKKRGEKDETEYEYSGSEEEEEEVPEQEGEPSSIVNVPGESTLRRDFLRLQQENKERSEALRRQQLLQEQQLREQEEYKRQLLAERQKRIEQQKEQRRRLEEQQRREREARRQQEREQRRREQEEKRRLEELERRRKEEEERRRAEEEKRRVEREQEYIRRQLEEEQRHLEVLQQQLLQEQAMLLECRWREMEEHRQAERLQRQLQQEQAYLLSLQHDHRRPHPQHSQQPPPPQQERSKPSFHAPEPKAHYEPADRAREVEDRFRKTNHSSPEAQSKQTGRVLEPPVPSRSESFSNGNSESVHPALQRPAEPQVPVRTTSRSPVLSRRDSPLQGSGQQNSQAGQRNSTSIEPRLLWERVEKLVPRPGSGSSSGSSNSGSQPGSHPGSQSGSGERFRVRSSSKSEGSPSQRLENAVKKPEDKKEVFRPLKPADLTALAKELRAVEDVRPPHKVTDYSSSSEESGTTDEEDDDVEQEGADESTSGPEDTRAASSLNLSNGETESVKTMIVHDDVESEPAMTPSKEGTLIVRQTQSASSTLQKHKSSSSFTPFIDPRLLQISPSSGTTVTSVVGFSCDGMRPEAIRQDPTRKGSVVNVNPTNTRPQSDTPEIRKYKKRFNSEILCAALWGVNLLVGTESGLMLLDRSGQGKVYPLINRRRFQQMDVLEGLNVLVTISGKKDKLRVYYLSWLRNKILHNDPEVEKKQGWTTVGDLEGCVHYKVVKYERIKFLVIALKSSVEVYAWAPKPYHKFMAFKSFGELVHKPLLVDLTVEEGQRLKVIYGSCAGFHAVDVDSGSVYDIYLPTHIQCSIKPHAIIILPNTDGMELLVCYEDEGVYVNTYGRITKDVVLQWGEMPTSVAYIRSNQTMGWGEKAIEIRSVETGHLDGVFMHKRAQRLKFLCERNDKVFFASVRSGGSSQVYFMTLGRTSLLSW
Method: as §1

[16] = target: T4, PRKCB2 (Homo sapiens, UniProt P05771); parameters: Invitrogen kinase panel, per cent inhibition of kinase activity; details: 10 µM, inhibitor
T4 construct: gene PRKCB; isoform beta2
T4 sequence (P05771 whole entry, canonical isoform): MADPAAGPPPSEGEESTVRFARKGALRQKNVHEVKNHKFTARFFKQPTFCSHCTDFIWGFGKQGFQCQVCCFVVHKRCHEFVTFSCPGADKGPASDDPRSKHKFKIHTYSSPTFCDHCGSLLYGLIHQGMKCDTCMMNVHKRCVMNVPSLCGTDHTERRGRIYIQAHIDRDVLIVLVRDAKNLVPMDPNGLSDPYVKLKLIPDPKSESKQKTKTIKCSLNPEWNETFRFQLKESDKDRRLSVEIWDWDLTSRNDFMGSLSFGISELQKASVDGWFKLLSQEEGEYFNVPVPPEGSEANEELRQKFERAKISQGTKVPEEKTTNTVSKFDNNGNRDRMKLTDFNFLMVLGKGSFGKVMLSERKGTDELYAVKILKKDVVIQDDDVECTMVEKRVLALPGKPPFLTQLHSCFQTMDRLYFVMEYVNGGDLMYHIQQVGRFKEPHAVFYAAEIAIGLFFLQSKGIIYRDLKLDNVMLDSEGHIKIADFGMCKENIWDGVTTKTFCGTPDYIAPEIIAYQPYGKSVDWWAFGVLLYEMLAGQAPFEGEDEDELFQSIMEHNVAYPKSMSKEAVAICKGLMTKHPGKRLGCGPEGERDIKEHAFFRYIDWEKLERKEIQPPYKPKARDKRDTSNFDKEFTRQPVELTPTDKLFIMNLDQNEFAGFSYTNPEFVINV
Method: as §1

[17] = target: PIM2 (Homo sapiens, UniProt Q9P1W9); parameters: Invitrogen kinase panel, per cent inhibition of kinase activity; details: 10 µM, inhibitor
PIM2, sequence (Q9P1W9 whole entry): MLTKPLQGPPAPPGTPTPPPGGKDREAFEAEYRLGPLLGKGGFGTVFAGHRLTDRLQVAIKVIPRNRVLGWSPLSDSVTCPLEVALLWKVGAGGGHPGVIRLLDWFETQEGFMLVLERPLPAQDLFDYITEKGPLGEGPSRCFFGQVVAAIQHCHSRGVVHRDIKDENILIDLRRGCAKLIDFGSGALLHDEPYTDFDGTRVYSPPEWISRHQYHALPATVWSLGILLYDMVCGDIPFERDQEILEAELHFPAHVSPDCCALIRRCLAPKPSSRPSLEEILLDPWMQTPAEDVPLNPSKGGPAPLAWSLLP
Method: as §1

[18] = target: SRC (Homo sapiens, UniProt P12931); parameters: Invitrogen kinase panel, per cent inhibition of kinase activity; details: 10 µM, inhibitor
SRC, sequence (P12931 whole entry): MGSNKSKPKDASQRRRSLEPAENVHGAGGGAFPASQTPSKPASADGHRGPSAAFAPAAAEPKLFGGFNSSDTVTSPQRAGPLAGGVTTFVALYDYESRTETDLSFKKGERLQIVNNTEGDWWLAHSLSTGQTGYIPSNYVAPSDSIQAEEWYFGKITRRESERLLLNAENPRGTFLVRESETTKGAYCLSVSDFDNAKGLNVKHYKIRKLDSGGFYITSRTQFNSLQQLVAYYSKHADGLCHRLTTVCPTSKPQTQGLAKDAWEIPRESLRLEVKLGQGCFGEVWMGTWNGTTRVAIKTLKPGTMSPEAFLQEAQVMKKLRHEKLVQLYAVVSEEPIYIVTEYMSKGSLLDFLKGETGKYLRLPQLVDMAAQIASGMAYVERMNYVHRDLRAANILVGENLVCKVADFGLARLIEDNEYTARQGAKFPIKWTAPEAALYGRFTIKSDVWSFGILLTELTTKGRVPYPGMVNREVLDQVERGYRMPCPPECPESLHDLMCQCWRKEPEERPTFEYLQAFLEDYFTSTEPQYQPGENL
Method: as §1

[19] = target: T5, Eukaryotic elongation factor-2 kinase (Homo sapiens, UniProt O00418); parameters: Invitrogen kinase panel, per cent inhibition of kinase activity; details: 10 µM, inhibitor
T5 construct: gene EEF2K
Method: as §1

[20] = target: KDR (Homo sapiens, UniProt P35968); parameters: Invitrogen kinase panel, per cent inhibition of kinase activity; details: 10 µM, inhibitor
KDR, sequence (P35968 whole entry): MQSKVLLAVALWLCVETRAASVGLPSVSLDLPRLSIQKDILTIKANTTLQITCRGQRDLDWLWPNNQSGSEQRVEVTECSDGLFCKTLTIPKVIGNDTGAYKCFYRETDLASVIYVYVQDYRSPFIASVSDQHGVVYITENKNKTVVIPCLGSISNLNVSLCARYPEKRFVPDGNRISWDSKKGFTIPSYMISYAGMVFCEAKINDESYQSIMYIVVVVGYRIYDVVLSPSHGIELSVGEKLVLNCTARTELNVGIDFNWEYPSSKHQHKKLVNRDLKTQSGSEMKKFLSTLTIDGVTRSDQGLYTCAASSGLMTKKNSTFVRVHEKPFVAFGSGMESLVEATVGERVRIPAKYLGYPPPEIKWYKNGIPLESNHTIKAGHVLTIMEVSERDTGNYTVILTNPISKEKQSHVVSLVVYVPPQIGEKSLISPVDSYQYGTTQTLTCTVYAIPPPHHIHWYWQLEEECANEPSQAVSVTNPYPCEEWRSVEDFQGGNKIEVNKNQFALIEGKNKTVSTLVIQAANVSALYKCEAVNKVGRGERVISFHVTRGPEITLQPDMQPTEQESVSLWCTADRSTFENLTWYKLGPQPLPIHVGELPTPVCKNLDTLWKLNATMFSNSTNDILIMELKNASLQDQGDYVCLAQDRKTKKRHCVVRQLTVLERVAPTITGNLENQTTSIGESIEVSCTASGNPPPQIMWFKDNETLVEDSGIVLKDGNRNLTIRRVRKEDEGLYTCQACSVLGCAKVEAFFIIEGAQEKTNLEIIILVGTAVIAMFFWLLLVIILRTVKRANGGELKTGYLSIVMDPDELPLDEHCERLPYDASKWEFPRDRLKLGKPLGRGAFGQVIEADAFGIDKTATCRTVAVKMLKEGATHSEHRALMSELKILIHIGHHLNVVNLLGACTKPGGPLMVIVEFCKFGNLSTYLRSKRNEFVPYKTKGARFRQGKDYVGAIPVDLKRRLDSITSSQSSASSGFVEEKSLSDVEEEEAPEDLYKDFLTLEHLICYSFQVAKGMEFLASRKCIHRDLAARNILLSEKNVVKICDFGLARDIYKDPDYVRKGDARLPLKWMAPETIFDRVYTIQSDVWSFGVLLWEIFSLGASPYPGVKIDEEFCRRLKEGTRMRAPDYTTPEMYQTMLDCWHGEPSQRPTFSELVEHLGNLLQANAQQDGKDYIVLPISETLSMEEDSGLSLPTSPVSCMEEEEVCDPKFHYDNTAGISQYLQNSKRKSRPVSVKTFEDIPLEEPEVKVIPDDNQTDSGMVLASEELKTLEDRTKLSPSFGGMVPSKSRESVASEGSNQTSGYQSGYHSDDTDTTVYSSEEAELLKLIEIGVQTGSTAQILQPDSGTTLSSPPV
Method: as §1

[21] = target: CSNK1A1 (Homo sapiens, UniProt P48729); parameters: Invitrogen kinase panel, per cent inhibition of kinase activity; details: 10 µM, inhibitor
CSNK1A1, sequence (P48729 whole entry): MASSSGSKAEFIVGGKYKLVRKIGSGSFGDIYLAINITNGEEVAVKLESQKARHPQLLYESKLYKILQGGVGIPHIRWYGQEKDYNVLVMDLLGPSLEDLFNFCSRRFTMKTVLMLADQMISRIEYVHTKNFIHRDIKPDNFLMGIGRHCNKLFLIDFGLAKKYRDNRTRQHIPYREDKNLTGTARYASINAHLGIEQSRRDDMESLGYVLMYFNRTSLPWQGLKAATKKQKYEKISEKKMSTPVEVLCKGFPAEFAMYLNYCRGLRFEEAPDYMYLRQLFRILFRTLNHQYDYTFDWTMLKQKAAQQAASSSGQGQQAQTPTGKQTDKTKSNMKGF
Method: as §1

[22] = target: T6, Rsk1 (Homo sapiens, UniProt Q15418); parameters: Invitrogen kinase panel, per cent inhibition of kinase activity; details: 10 µM, inhibitor
T6 construct: gene RPS6KA1
Method: as §1

[23] = target: PIK3C3 (Homo sapiens, UniProt Q8NEB9); parameters: Invitrogen kinase panel, per cent inhibition of kinase activity; details: 10 µM, inhibitor
Method: as §1

[24] = target: ROCK1 (Homo sapiens, UniProt Q13464); parameters: Invitrogen kinase panel, per cent inhibition of kinase activity; details: 10 µM, inhibitor
Method: as §1

[25] = target: CAMK1 (Homo sapiens, UniProt Q14012); parameters: Invitrogen kinase panel, per cent inhibition of kinase activity; details: 10 µM, inhibitor
Method: as §1

[26] = target: MKNK1 (Homo sapiens, UniProt Q9BUB5); parameters: Invitrogen kinase panel, per cent inhibition of kinase activity; details: 10 µM, inhibitor
Method: as §1

## O=C(O)c1sc2cc(F)sc2c1Cl [PF-07208254, 3-chloro-5-fluorothieno[3,2-b]thiophene-2-carboxylic acid]
[1]
  Lantha Binding % Inhibition PF-07208254: 18.3%
[2]
  Lantha Binding % Inhibition PF-07208254: 6.8%
[3]
  Lantha Binding % Inhibition PF-07208254: 29.2%
[4]
  Lantha Binding % Inhibition PF-07208254: 5.9%
[5]
  Lantha Binding % Inhibition PF-07208254: 16.2%
[6]
  Lantha Binding % Inhibition PF-07208254: 7.8%
[7]
  Lantha Binding % Inhibition PF-07208254: 2.6%
[8]
  Lantha Binding % Inhibition PF-07208254: 15.9%
[9]
  Lantha Binding % Inhibition PF-07208254: 3.3%
[10]
  Lantha Binding % Inhibition PF-07208254: 8.1%
[11]
  Lantha Binding % Inhibition PF-07208254: 11.8%
[12]
  ATP = Km % Inhibition PF-07208254: 8.3%
[13]
  ATP = 1 mM % Inhibition PF-07208254: -0.7%
  ATP = Km % Inhibition PF-07208254: 6.7%
[14]
  ATP = 10 uM % Inhibition PF-07208254: 3.5%
[15]
  ATP = 1 mM % Inhibition PF-07208254: -7.5%
  ATP = Km % Inhibition PF-07208254: 11.9%
[16]
  ATP = 1 mM % Inhibition PF-07208254: 1.9%
  ATP = Km % Inhibition PF-07208254: -1.7%
[17]
  ATP = 1 mM % Inhibition PF-07208254: -5.2%
  ATP = Km % Inhibition PF-07208254: 22.3%
[18]
  ATP = 1 mM % Inhibition PF-07208254: -4.8%
  ATP = Km % Inhibition PF-07208254: 5.6%
[19]
  ATP = Km % Inhibition PF-07208254: 2.3%
[20]
  ATP = 1 mM % Inhibition PF-07208254: 5.6%
  ATP = Km % Inhibition PF-07208254: 1.1%
[21]
  ATP = 1 mM % Inhibition PF-07208254: -0.6%
  ATP = Km % Inhibition PF-07208254: 9.2%
[22]
  ATP = Km % Inhibition PF-07208254: 3.3%
[23]
  ATP = Km % Inhibition PF-07208254: 7.3%
[24]
  ATP = 1 mM % Inhibition PF-07208254: 0.8%
  ATP = Km % Inhibition PF-07208254: 3.6%
[25]
  ATP = 100 uM % Inhibition PF-07208254: -7.9%
[26]
  ATP = Km % Inhibition PF-07208254: 15.1%

## CCC1(COc2ccc(-c3csc(-c4ccccc4C(=O)O)n3)cn2)CC1 [PF-07247685, 2-(4-{6-[(1-ethylcyclopropyl)methoxy]pyridin-3-yl}-1,3-thiazol-2-yl)benzoic acid]
[1]
  Lantha Binding % Inhibition PF-07247685: 2.4%
[2]
  Lantha Binding % Inhibition PF-07247685: -2.2%
[3]
  Lantha Binding % Inhibition PF-07247685: 1.9%
[4]
  Lantha Binding % Inhibition PF-07247685: 0.5%
[5]
  Lantha Binding % Inhibition PF-07247685: 3.6%
[6]
  Lantha Binding % Inhibition PF-07247685: 1.8%
[7]
  Lantha Binding % Inhibition PF-07247685: -1.9%
[8]
  Lantha Binding % Inhibition PF-07247685: 15.1%
[9]
  Lantha Binding % Inhibition PF-07247685: 1.3%
[10]
  Lantha Binding % Inhibition PF-07247685: -1.7%
[11]
  Lantha Binding % Inhibition PF-07247685: 1.2%
[12]
  ATP = Km % Inhibition PF-07247685: 5.4%
[13]
  ATP = 1 mM % Inhibition PF-07247685: -0.2%
  ATP = Km % Inhibition PF-07247685: 3.8%
[14]
  ATP = 10 uM % Inhibition PF-07247685: 2.0%
[15]
  ATP = 1 mM % Inhibition PF-07247685: 3.2%
  ATP = Km % Inhibition PF-07247685: 25.5%
[16]
  ATP = 1 mM % Inhibition PF-07247685: 4.0%
  ATP = Km % Inhibition PF-07247685: 9.4%
[17]
  ATP = 1 mM % Inhibition PF-07247685: 0.9%
  ATP = Km % Inhibition PF-07247685: 0.1%
[18]
  ATP = 1 mM % Inhibition PF-07247685: -1.0%
  ATP = Km % Inhibition PF-07247685: 17.3%
[19]
  ATP = Km % Inhibition PF-07247685: -1.5%
[20]
  ATP = 1 mM % Inhibition PF-07247685: 0.1%
  ATP = Km % Inhibition PF-07247685: 2.0%
[21]
  ATP = 1 mM % Inhibition PF-07247685: 2.1%
  ATP = Km % Inhibition PF-07247685: 3.1%
[22]
  ATP = Km % Inhibition PF-07247685: 2.4%
[23]
  ATP = Km % Inhibition PF-07247685: 3.0%
[24]
  ATP = 1 mM % Inhibition PF-07247685: -0.9%
  ATP = Km % Inhibition PF-07247685: 2.4%
[25]
  ATP = 100 uM % Inhibition PF-07247685: -5.1%
[26]
  ATP = Km % Inhibition PF-07247685: 0.5%
